According to patent US20170029383A1, “Diaminotriazine Derivatives as Herbicides” (BASF SE, priority 2014, published 2017):

Legend:
Assay in all cases: greenhouse experiment, pre-emergence treatment
Details in all cases: pre-emergence method, application rate 0.500 kg/ha; scale from 0 to 100
[1] = system: AMARE; format: in vivo, Amaranthus retroflexus
Description: (§1) The seeds of the test plants were sown separately for each species. For the pre-emergence treatment, the active ingredients, which had been suspended or emulsified in water, were applied directly after sowing by means of finely distributing nozzles. The containers were irrigated gently to promote germination and growth and subsequently covered with transparent plastic hoods until the plants had rooted. This cover caused uniform germination of the test plants, unless this had been impaired by the active ingredients. Depending on the species, the plants were kept at 10-25° C. or 20-35° C., respectively. The test period extended over 2 to 4 weeks. During this time, the plants were tended, and their response to the individual treatments was evaluated. Evaluation was carried out using a scale from 0 to 100. 100 means no emergence of the plants, or complete destruction of at least the aerial moieties, and 0 means no damage, or normal course of growth. A moderate herbicidal activity is given at values of at least 60, a good herbicidal activity is given at values of at least 70, and a very good herbicidal activity is given at values of at least 85. The plants used in the greenhouse experiments were of the following species: [table]

[2] = system: SETFA; format: in vivo, Setaria faberi
Description: as §1

[3] = system: ABUTH; format: in vivo, Abutilon theophrasti
Description: as §1

Question: Which “herbicidal activity against AMARE” value [1] does the source give for `CC(C)Oc1cccc(F)c1Nc1nc(N)nc(C(C)(C)F)n1` [Example 1, N2-(2-fluoro-6-isopropoxy-phenyl)-6-(1-fluoro-1-methyl-ethyl)-1,3,5-triazine-2,4-diamine] here?
Answer: Its value is “very good (a very good herbicidal activity is given at values of at least 85)”.

Question: What about the “herbicidal activity against SETFA” value [2] of the same compound?
Answer: Its value is “very good (a very good herbicidal activity is given at values of at least 85)”.

Question: And the “herbicidal activity against ABUTH” value [3]?
Answer: The value was “very good (a very good herbicidal activity is given at values of at least 85)”.
